Results: US11254986B2, “Gene signature for immune therapies in cancer” (ALMAC DIAGNOSTICS LIMITED, priority 2015, dated 2022)

Tests used:
[1] = system: HCC1937 parental and HCC1937-BR cells; assay: Cell viability assay (CellTitre-Glo), determination of cisplatin sensitivity; format: cell-based; conditions: HCC1937 BRCA1 mutant cell-line relative to BRCA1 corrected cell-line (HCC1937-BR); FIG. 8D
Method: For measurement of sensitivity to cisplatin, exponentially growing cells were seeded into 96-well plates. […] Cells were incubated in the presence of drug for 96 hours following which time the viability of the cells was assessed using the Promega CellTitre-Glo luminescent cell viability assay. The sensitivity of the cells was calculated as the percentage of vehicle (DMSO) control.

[2] = system: cGAS bound to Histone H3; assay: Co-immunoprecipitation of cGAS with Histone H3 in cytosolic fraction; format: cell-based; conditions: HeLa cells, not observed in DMSO treated control, FIG. 18B
Method: Cells were fractionated using Buffer A (10 mM Hepes pH7.4; […] MgCl2, 10 mM NaCl, 0.1% NP-40, Protease and Phosphatase inhibitors) and Buffer C (10 mM Hepes pH7.4; […], 420 mM NaCl, 0.1% NP-40, Protease and Phosphatase inhibitors). Cells were cultured at ˜70% confluency. Cells were then removed in PBS using a cell scraper and transferred to an Eppendorf. Following centrifugation at 1000 rpm at 4° C. for 5 minutes, cell pellets were resuspended in 350 μl Buffer A. Cells were lysed on ice for twenty minutes, following which samples were centrifuged at 12000 rpm for 2 minutes. Supernatants were removed, and spun a further two times at 12000 rpm for 2 minutes. The supernatant (cytoplasmic fraction) was carefully removed and stored at −80° C. until quantification using the BCA Assay (Pierce, Rockford, Ill., USA) according to manufacturer's instructions using a plate reader. The remaining pellet was washed ×1 in Buffer A, then centrifuged at 12000 rpm for 2 minutes. […] Samples were then centrifuged at 12000 rpm for two minutes to remove debris, and supernatant (nuclear fraction) stored at −80° C. until quantification as described above.
Cytoplasmic fractions were prepared as described above. […] Results were then visualized and recorded using Luminata Crescendo Western HRP substrate (Millipore, UK) and an alpha imager.

## N.N.[Cl][Pt][Cl] [cisplatin]
[1]
  sensitivity to cisplatin (cell viability): more sensitive
[2]
  binding of cGAS to Histone H3 (co-IP): cGAS was again bound to Histone H3

## NC(=O)NO [hydroxyurea, Hydroxyurea]
[2]
  binding of cGAS to Histone H3 (co-IP): cGAS was again bound to Histone H3
